According to article PMC4747398, “Isothiocyanatostilbenes as novel c-Met inhibitors” (Oncotarget, 2015):
Like-named read-outs stand apart in the source and are kept apart here.

What was measured:
c-Met [1] = target: T1, c-Met (Homo sapiens, UniProt P08581); experiment: HGF-induced c-Met phosphorylation, western blot, DU145; assay type: cell-based; parameters: endogenous in cells; host or cells: DU145; conditions: for effective concentration for c-Met inhibition in 10% FBS versus serum-free: DU145, 33 ng/ml HGF 20 minutes, 10% FBS RPMI; for reduction of c-Met activation: 8 μM compound, western blot densitometry
T1 sequence (P08581 25-1390): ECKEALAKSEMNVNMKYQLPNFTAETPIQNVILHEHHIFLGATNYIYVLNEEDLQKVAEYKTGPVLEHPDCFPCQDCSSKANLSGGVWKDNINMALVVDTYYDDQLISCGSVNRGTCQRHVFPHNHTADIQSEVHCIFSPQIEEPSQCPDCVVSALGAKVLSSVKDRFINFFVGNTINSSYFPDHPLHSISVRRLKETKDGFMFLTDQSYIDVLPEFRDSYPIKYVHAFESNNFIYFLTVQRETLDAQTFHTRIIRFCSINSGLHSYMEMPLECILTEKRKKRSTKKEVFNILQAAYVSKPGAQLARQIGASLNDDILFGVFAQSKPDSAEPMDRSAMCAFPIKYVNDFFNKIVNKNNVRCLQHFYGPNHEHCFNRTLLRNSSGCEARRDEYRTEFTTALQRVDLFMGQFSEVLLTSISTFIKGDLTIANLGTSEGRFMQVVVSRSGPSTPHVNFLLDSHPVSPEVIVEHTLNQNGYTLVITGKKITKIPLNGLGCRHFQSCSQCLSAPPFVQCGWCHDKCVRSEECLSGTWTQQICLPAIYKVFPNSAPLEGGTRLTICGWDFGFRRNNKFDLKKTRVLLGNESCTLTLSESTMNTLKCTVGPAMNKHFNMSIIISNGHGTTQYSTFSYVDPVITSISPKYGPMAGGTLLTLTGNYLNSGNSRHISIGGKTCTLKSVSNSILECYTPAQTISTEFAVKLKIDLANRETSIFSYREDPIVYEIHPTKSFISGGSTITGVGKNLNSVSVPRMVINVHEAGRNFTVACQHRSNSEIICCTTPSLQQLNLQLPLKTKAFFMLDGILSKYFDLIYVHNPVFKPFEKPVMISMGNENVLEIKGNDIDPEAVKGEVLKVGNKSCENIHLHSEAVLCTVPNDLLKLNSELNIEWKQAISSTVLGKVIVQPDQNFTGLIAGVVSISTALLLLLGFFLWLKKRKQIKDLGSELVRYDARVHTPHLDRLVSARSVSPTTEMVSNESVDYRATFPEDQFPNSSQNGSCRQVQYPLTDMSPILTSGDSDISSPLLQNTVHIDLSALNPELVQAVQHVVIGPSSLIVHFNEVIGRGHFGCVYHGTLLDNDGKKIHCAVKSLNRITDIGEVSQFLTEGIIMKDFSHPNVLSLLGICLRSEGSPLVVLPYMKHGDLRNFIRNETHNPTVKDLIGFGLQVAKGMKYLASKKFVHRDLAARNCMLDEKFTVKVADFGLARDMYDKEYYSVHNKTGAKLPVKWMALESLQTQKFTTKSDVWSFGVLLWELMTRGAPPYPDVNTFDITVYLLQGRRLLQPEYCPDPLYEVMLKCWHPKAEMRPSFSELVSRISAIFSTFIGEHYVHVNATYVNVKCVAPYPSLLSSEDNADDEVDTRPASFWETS
Method: (§1) Cells were grown to ~70% confluency prior to treatment. Cells were serum-starved in serum-free media for 30 minutes prior to treatment in complete media or serum-free media for the indicated times. Cell lysates were collected in Laemmli (125 mM Tris, 4% SDS, 0.01% bromophenol blue, 30% sucrose) containing 0.5% β-mercaptoethanol and boiled ~8 minutes. Primary antibodies include: phospho-c-Met (Y1234/1235), phospho-Akt (S473), pEGFR (S845), pIGF-IRβ (Y1135/1136) (Cell Signaling Technology; Beverly, MA); α-actin (Sigma-Aldrich), c-Met (C-28) (Life Technologies). Secondary antibodies include: horseradish peroxidase-conjugated anti-rabbit and anti-mouse (GE Healthcare; Pittsburgh, PA). ECL 2 was used for chemiluminescent detection (Thermo Scientific; Rockford, IL). Densitometry was calculated using ImageJ (NIH).

DU145 cells [2] = experiment: HGF-induced invasion through Matrigel; assay type: cell-based; conditions: DU145, 33 ng/ml HGF, Matrigel diluted 1:5
Method: (§2) DU145 cells were grown to ~100% confluency prior to wounding with the IncuCyte™ WoundMaker™ (Essen Bioscience; Ann Arbor, MI) and washed once with complete media. For invasion, cells were covered with Matrigel diluted 1:5 in serum-free RPMI following wounding. Cells were treated with 4 μM DIDS or 25 μM H2DIDS with or without 33 ng/ml HGF or 100 ng/ml EGF for up to 4 days. Images were taken every 4 hours with the IncuCyte™ ZOOM imaging system (Essen Bioscience). Quadruplicate replicates were used in each experiment. Data are presented as percent wound density ± standard error of the mean (S.E.M.).

[3] = test system: protein translocation across the ER membrane; parameters: method as in PMID 8396042; conditions: cited from earlier work
IGFR = target: T2, IGFR (Homo sapiens, UniProt P08069); experiment: IGF-induced IGFR activation, western blot, DU145; assay type: cell-based; conditions: DU145, 100 ng/ml IGF 20 minutes, 4 μM DIDS or 25 μM H2DIDS
T2 construct: endogenous in cells; host or cells: DU145
T2 sequence (P08069 31-1367): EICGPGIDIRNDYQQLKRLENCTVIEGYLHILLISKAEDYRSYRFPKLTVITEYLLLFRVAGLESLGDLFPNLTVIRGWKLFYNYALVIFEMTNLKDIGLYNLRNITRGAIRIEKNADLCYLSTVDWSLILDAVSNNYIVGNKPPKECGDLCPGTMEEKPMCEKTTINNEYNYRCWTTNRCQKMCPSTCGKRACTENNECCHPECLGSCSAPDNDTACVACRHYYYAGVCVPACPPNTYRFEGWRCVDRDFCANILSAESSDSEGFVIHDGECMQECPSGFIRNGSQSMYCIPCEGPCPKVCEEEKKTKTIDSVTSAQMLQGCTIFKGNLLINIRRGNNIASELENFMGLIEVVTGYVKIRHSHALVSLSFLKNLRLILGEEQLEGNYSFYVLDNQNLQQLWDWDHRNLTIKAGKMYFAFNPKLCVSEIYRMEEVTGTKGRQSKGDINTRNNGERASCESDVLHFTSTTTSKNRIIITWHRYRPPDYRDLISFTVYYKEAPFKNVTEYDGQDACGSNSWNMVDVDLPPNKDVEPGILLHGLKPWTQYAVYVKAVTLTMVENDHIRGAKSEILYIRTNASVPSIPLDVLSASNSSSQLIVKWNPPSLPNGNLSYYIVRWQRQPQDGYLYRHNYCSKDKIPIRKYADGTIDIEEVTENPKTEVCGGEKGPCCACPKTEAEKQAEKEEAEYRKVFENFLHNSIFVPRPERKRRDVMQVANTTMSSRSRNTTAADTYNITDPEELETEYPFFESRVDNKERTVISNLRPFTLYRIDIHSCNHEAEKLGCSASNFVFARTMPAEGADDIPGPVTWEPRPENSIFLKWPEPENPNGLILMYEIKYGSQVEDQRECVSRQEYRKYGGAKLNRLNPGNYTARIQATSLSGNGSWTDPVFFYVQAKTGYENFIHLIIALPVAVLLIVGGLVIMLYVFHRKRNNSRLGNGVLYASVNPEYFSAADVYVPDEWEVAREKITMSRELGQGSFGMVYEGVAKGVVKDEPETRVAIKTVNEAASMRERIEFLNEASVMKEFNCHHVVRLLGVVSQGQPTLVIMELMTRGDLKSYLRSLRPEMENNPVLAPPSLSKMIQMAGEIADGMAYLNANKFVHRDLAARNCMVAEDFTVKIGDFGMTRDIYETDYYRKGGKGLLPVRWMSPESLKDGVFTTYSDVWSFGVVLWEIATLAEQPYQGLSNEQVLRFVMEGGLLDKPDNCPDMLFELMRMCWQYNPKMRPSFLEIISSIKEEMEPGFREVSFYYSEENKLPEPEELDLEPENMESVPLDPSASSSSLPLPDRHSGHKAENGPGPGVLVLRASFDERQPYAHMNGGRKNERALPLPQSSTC
Method: as §1

wild-type c-Met = wild-type c-Met (Homo sapiens, UniProt P08581); experiment: Z'-LYTE kinase phosphorylation inhibition assay, wild-type c-Met; assay type: biochemical
Sequence of wild-type c-Met (P08581 25-1390): as the sequence (P08581 25-1390) above
Method: (§3) Z'-LYTE™ Kinase Assay-Tyr6 Peptide kit (Invitrogen) was used to assess the ability of tested compounds to inhibit c-Met phosphorylation. Briefly, 20 μl/well reactions were set up in 96-well plates containing kinase buffer, 200 μM ATP, 4 μM Z-LYTE™ Tyr6 Peptide substrate, 2500 ng/ml c-Met kinase and DIDS or H2DIDS at various concentrations. After 1 hour incubation at room temperature, 10 μl development solution containing site-specific protease was added to each well. Incubation was continued for 1 hour. The reaction was then stopped, and the fluorescent signal ratio of 445 nm (coumarin)/520 nm (fluorescein) was determined on a plate reader (BioTek FLx800™), which reflects the peptide substrate cleavage status and/or the kinase inhibitory activity in the reaction. […] The IC50 value for each compound was calculated by nonlinear regression of log concentration versus % c-Met phosphorylation ± S.E.M., implemented in GraphPad Prism version 5.0 (GraphPad Software, CA, USA).

Akt = experiment: Downstream Akt phosphorylation, western blot, DU145; assay type: cell-based; conditions: DU145, serum-free, HGF, ~8 μM compound
Method: as §1

DU145 spheroids = experiment: 3D spheroid proliferation in Matrigel; assay type: cell-based; conditions: 5 μM compound, 33 ng/ml HGF, 72 hours
Method: Prior to seeding, cells were incubated with 2.5 ng/μl CellTracker Red (Life Technologies) in complete DMEM lacking Phenol Red for 5 minutes at room temperature then centrifuged at 1000 RPM for 5 minutes. Dyed cells were resuspended in complete DMEM lacking Phenol Red and containing 5% Matrigel before adding 5 μM, 10 μM, 20 μM, or 40 μM DIDS or H2DIDS +/− HGF. The mixture of cells, treatments, and Matrigel in complete media was seeded at 2000 cells/well in a 96 well plate. The plate was centrifuged at 1000 RPM for 3 minutes to collect the cells into the bottom of the plate. Spheroid growth was imaged for up to 80 hours and analyzed for average red object area using the IncuCyte™ ZOOM software. […] Images were captured by the IncuCyte™ ZOOM imaging system and representative 10X images are shown.

EGFR = target: T3, EGFR (Homo sapiens, UniProt P00533); experiment: EGF-induced EGFR activation, western blot, DU145; assay type: cell-based; conditions: DU145, 100 ng/ml EGF 20 minutes, 4 μM DIDS or 25 μM H2DIDS
T3 construct: 100 ng/ml EGF b; endogenous in cells; host or cells: DU145
Method: as §1

[4] = Tolerability in xenograft mice; assay type: in vivo
Method: (§4) All animal experiments were approved by the Institutional Animal Care and Use Committee, University of Louisiana at Monroe, and were handled in strict accordance with good animal practice as defined by the NIH guidelines. Athymic nude mice (Foxn1^nu/Foxn1^+, 4–5 weeks, female) were purchased from Harlan (Indianapolis, IN). The mice had free access to standard pellet food and water. The animals were acclimated to animal house facility conditions at a temperature of 18–25°C, with a relative humidity of 55 to 65% and a 12 h light/dark cycle, for one week prior to the experiments. MDA-MB-231/GFP human breast cancer cells were cultured and resuspended in serum-free DMEM medium (20 μl). After anesthesia, cell suspensions (1 × 10^6 cells/20 μl) were inoculated subcutaneously into the second mammary gland fat pad just beneath the nipple of each animal to generate orthotopic breast tumors. […] The mice were monitored by measuring tumor volume, body weight, and clinical observation. Tumor volume (V) was calculated by V = L/2 × W^2, where L was the length and W was the width of tumors. The results are presented as average ± S.E.M. Differences among various treatment groups were determined by the analysis of variance (ANOVA) followed by Dunnett's test using PASW statistics version 18. […]

DU145 cells [5] = experiment: HGF-induced wound healing; assay type: cell-based; conditions: DU145, 33 ng/ml HGF, 4 μM DIDS or 25 μM H2DIDS
Method: as §2

[6] = test system: matrix metalloproteinase release; parameters: method as in PMID 22937143; conditions: cited from earlier work
[7] = 2D proliferation (Cell Titer Blue); assay type: cell-based; conditions: up to 72 hours; for effect on serum-free proliferation (2D): serum-free RPMI
Method: Cells were seeded to ~30% confluency prior to treatment with DIDS or H2DIDS at 0.5 μM, 2 μM, 8 μM, 32 μM, or 64 μM for 24 hours, 48 hours, or 72 hours in complete or serum-free RPMI. A T0 timepoint was also measured. For each timepoint, cells were exposed to Cell Titer Blue reagent (Promega) for 1 hour at 37°C 5% CO2. Experiments were performed with quadruplicate replicates. Fluorescence was measured using a BioTek Synergy 4 plate reader with Gen5 software.

[8] = test system: MDA-MB-231/GFP human breast cancer cells; experiment: Orthotopic breast tumor xenograft; assay type: in vivo; conditions: mice, 5 mg/kg then 10 mg/kg i.p.
Method: as §4

DU145 cells [9] = experiment: HGF-induced cell scattering assay; assay type: cell-based; conditions: DU145, 33 ng/ml HGF overnight, 4 μM DIDS or 25 μM H2DIDS
Method: DU145 cells were grown to ~50% confluency. Cells were treated overnight with 4 μM DIDS or 25 μM H2DIDS in the presence or absence of 33 ng/ml HGF or 100 ng/ml EGF. Cells were fixed with 4% paraformaldehyde and stained with Oregon Green 488 phalloidin (Invitrogen; Carlsbad, CA). Images were acquired on an Eclipse TE300 inverted microscope (Nikon; Tokyo, Japan) with NIS Elements version 4.13.04 software. Presented images were taken using a 10X objective.

DU145 cells [10] = experiment: EGF-induced wound healing; assay type: cell-based; conditions: DU145, 100 ng/ml EGF, 4 μM DIDS or 25 μM H2DIDS
Method: as §2

c-Met M1250T (M1268T) = c-Met M1250T (M1268T) (Homo sapiens, UniProt P08581, M1250T); experiment: Z'-LYTE kinase phosphorylation inhibition assay, mutant c-Met; assay type: biochemical; conditions: 200 μM ATP, cell-free
Sequence of c-Met M1250T (M1268T) (P08581 956-1390 M1250T limits assumed): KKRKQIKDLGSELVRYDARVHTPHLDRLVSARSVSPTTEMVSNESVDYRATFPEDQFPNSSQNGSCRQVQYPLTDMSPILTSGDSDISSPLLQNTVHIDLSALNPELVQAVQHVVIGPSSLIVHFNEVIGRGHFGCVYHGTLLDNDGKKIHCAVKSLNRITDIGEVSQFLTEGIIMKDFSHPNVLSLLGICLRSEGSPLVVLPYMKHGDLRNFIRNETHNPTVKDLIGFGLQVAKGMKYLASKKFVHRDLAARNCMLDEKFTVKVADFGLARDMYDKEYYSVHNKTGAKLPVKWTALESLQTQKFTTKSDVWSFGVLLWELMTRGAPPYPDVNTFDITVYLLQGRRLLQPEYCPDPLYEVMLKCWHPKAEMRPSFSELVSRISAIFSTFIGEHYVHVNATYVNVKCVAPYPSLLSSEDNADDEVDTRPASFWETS
Method: as §3

c-Met [11] = target: T1, c-Met; experiment: Washout and reversal of c-Met phosphorylation in DU145, western blot; assay type: cell-based; parameters: endogenous in cells; host or cells: DU145; conditions: wash
Method: as §1

c-Met [12] = target: T1, c-Met; experiment: Constitutive pMet in c-Met amplified H1993 cells, western blot; assay type: cell-based; parameters: endogenous in cells; conditions: 5 μM compound, no HGF
Method: as §1

[13] = DU145, serum-free, 33 ng/ml HGF 20 minutes

Structure (SMILES) | effect on HGF-induced invasion (DU145 cells [2]) | effect on IGFR activation (IGFR) | decrease of HGF-induced DU145 spheroid growth (DU145 spheroids) | effect on EGFR activation (EGFR) | effect on HGF-induced wound healing (DU145 cells [5]) | effective concentration for c-Met inhibition in 10% FBS versus serum-free (c-Met [1]) | reduction of c-Met activation (c-Met [1]; [13]) | effect on proliferation in complete media (2D) [7] | effect on serum-free proliferation (2D) [7] | effect on HGF-induced cell scattering (DU145 cells [9]) | effect on EGF-mediated wound healing (DU145 cells [10]) | effect on pMet levels in H1993 cells (c-Met [12]) | also measured
CC(=O)Nc1ccc(C=Cc2ccc(N=C=S)cc2S(=O)(=O)O)c(S(=O)(=O)O)c1 [SITS, 4-acetamido-4′-isothiocyanatostilbene-2,2′-disulfonic acid] |  |  |  |  |  |  |  |  |  |  |  |  | inhibition at 250 µM (c-Met [1]; DU-145, DU145, serum-free, 33 ng/ml HGF 20 minutes, 250 μM compound): ~90%
O=S(=O)(O)c1cc(N=C=S)ccc1C=Cc1ccc(N=C=S)cc1S(=O)(=O)O [DIDS, 4,4′-Diisothiocyanatostilbene-2,2′-disulfonic acid] | reduce HGF-induced wound healing and invasion in a dose-dependent manner | do not significantly reduce | ~ 60% | do not significantly reduce | significantly reduced | slightly higher effective concentrations | ~ 90% | minimal effects | minimal effects | able to reduce HGF-induced | minimal effects | much less significant effects | concentration inhibiting protein translocation across the ER membrane [3]: ≥ 400 µM; IC50 (wild-type c-Met; 200 μM ATP, cell-free, read-out: IC50, wild-type c-Met): 300 nM; reduction of downstream Akt (Akt): ~ 90%; signs of toxicity ([4]; 5 mg/kg intraperitoneally, ~2 weeks): No obvious signs of toxicity; body weight versus DMSO control ([4]; 5 mg/kg then 10 mg/kg i.p., 3X/week): no change in body weight; concentration inhibiting matrix metalloproteinase release [6]: ≥ 400 µM; tumor size (caliper) ([8]; 3X/week): began to reduce tumor size towards the end of the experiment; tumor weight at necropsy ([8]; versus DMSO control): Differences in overall tumor weight were evident; IC50 (c-Met M1250T (M1268T)): 370 nM; effect on pMet when given post HGF treatment (c-Met [11]; DU145, 33 ng/ml HGF 20 minutes, 4 μM for 20 or 60 minutes): reduced pMet levels; reversibility of c-Met inhibition after washout (c-Met [11]; DU145, 4 μM 20 minutes, then 33 ng/ml HGF 20 minutes): does not irreversibly bind c-Met
Cc1[nH]c(/C=C2\C(=O)Nc3ccc(S(=O)(=O)N(C)c4cccc(Cl)c4)cc32)c(C)c1C(=O)N1CCN(C)CC1 [SU11274] |  |  |  |  |  |  |  |  |  |  |  | ameliorated pMet levels | reduction of c-Met phosphorylation (wild-type c-Met; 500 nM compound, cell-free kinase assay): ~ 70%
O=[N+]([O-])c1ccc(C=Cc2ccc([N+](=O)[O-])cc2S(=O)(=O)O)c(S(=O)(=O)O)c1 [DNDS, 4,4′-dinitrostilbene-2,2′-disulfonic acid] |  |  |  |  |  |  |  |  |  |  |  |  | inhibition at 2000 µM (c-Met [1]; DU-145, read-out: inhibition of c-Met): ~90%
O=S(=O)(O)c1cc(N=C=S)ccc1CCc1ccc(N=C=S)cc1S(=O)(=O)O [H2DIDS, 4,4′-Diisothiocyanatodihydrostilbene-2,2′-disulfonic acid] | reduce HGF-induced wound healing and invasion in a dose-dependent manner | do not significantly reduce | ~ 60% | do not significantly reduce | significantly reduced | slightly higher effective concentrations | ~ 90% | minimal effects | minimal effects | able to reduce HGF-induced | minimal effects | much less significant effects | IC50 (wild-type c-Met): 3600 nM
